From ChEMBL document CHEMBL5143544, “Chemoenzymatic synthesis, computational investigation, and antitumor activity of monocyclic lankacidin derivatives” (Bioorg Med Chem, 2022)

Experiments:
[1] = tested on: A549; test: Cytotoxicity against human A549 cells assessed as reduction in cell viability after 72 hrs by MTT assay; type: functional, cell-based; conditions: A549, 72 h
[2] = tested on: HeLa; test: Cytotoxicity against human HeLa cells assessed as reduction in cell viability after 72 hrs by MTT assay; type: functional, cell-based
[3] = tested on: MCF7; test: cells; conditions: Homo sapiens, MCF7, 72 h
Description: Cytotoxicity against human MCF7 cells assessed as reduction in cell viability after 72 hrs by MTT assay

[4] = tested on: Micrococcus luteus; test: Antimicrobial activity against Micrococcus lutes assessed as reduction in microbial growth incubated for 24 hrs by agar dilution method; type: functional

SMILES: CC(=O)O[C@H]1C(=O)[C@@]2(C)[C@H]([C@H](OC(=O)c3ccccc3)[C@]3(O)C[C@H](OC(=O)[C@H](O)[C@@H](NC(=O)c4ccccc4)c4ccccc4)C(C)=C1C3(C)C)[C@]1(OC(C)=O)CO[C@@H]1C[C@@H]2O [PACLITAXEL]
- IC50 [1]: 0.0295 µM
- IC50 [2]: < 0.00625 µM
- IC50 [3]: > 0.0811 µM

SMILES: CC1=C\C[C@H](O)/C=C/C(C)=C/[C@@H](NC(=O)[C@H](C)O)[C@H](C)C(=O)/C(C)=C/C[C@H](O)\C=C\1
- IC50 [1]: > 100 µM
- IC50 [2]: 13.3 µM
- IC50 [3]: > 100 µM

SMILES: CC(=O)C(=O)N[C@@H]1/C=C(C)/C=C\[C@@H](O)C/C=C(C)/C=C/[C@@H](O)C[C@H]2OC(=O)[C@]1(C)C(=O)[C@@H]2C
- IC50 [1]: > 100 µM
- IC50 [2]: 23.3 µM
- IC50 [3]: > 100 µM
- MIC [4]: 6.2 µM

SMILES: O=c1[nH]cc(F)c(=O)[nH]1 [FLUOROURACIL]
- IC50 [1]: 6.6 µM
- IC50 [2]: 32.1 µM
- IC50 [3]: 22.8 µM

SMILES: CC1=C\C[C@H](O)/C=C/C(C)=C/[C@@H](NC(=O)[C@H](C)O)[C@]2(C)C(=O)O[C@H](C[C@H](O)\C=C\1)[C@@H](C)C2=O
- IC50 [1]: > 100 µM
- IC50 [2]: 24.8 µM
- IC50 [3]: 75.7 µM

SMILES: CC(=O)C(=O)N[C@@H]1/C=C(C)/C=C/[C@@H](O)C/C=C(C)/C=C/[C@@H](O)C/C=C(\C)C(=O)[C@H]1C
- IC50 [1]: > 100 µM
- IC50 [2]: 72.9 µM
- IC50 [3]: > 100 µM

SMILES: CC1=C\C[C@H](O)/C=C/C(C)=C/[C@@H](NC(=O)[C@H](C)O)[C@@H](C)C(=O)/C(C)=C/C[C@H](O)\C=C\1
- IC50 [1]: > 100 µM
- IC50 [2]: 45.4 µM
- IC50 [3]: 42.8 µM

SMILES: CC(=O)C(=O)N[C@@H]1/C=C(C)/C=C/[C@@H](O)C/C=C(C)/C=C/[C@@H](O)C/C=C(\C)C(=O)[C@@H]1C
- IC50 [1]: > 100 µM
- IC50 [2]: > 100 µM
- IC50 [3]: > 100 µM

SMILES: CC(=O)O[C@@H]1/C=C/C(C)=C/C[C@H](O)/C=C/C(C)=C/[C@@H](NC(=O)[C@H](C)O)[C@]2(C)C(=O)O[C@H](C1)[C@@H](C)C2=O
- IC50 [1]: > 100 µM
- IC50 [2]: 48.2 µM
- IC50 [3]: 47.1 µM
